Source: patent US20220287935A1, “CANNABINOID-CONTAINING SKIN CARE COMPOSITIONS” (Cannasmetics Ltd., priority 2021, published 2022)

Experiments:
HaCaT cells [1] = test: Cellular ROS production from HaCaT cells in the presence of H2O2 (DCFDA assay); format: cell-based; details: each component alone, 5 hours, FIG. 9A
Experimental: Cellular ROS production was measured using a DCFDA assay kit (Abcam, ab113851)) according to the manufacturer's protocol. DCFDA (2′,7′-dichlorofluorescein diacetate), a cell-permeable fluorogenic dye, is deacetylated to a non-fluorescent compound by cellular esterases and later oxidized into highly fluorescent DCF (2′,7′-dichlorofluorescein) by ROS, allowing measurement of hydroxyl, peroxyl and other ROS activity within the cell.
HaCaT cells were seeded at a density of 2.5×10^4 for 24 hours on 96-well plates. After 24 hours, the cells were washed twice with 1× buffer assay and then incubated with 25 μM DCFDA in 1× buffer assay in a 37° C. incubator for 45 minutes. After two washes with 1× buffer assay, the cells were exposed to the tested samples and to 0.25 M H202, each added separately to the medium.
Cell fluorescence in the 96-well plates was measured at 488 nm excitation and 525 nm emission using a Tecan spark plate reader (Tecan US, Inc. Morrisville, NC), 5 hours after the addition of the tested samples or sample combinations.
The control used as reference are cells treated only with H2O2. The results are shown as percentage of the control.

[2] = test system: TNFα secretion from LPS-stimulated THP-1 cells; test: TNFα secretion from LPS-stimulated THP-1 cells (HTRF); format: cell-based, Human; details: for ratio of TNFα secretion to cells viability: alone; for TNFα secretion (percentage of the control): each alone, highest concentration, FIG. 2A
Experimental: (§1) Human THP-1 monocytes were seeded in a 96-well plate (Eppendorf) at a density of 3×10^5 cells/well (n=4) in 100 μl cell specific media and was differentiated using phorbol-12-myristate 13-acetate (PMA) (Sigma-Aldrich) at a final concentration of 200 nM. PMA supplemented media was removed after 72 hours. Cells were then washed twice with PBS and rested in fresh PMA-free media for further 24 hours in order to obtain phenotypic characteristics of macrophages (Daigneault et al., 2010, PLoS One, 5, e8668).
(§2) After 24 hours, cells were stimulated by Lipopolysaccharides (LPS) at a final concentration of 1μg/ml and were treated with the samples using specific media containing 5% FBS (100 μL of media solution containing the tested materials at the indicated concentration; see, Example 1).
(§3) After 24 hours, the cells supernatants were harvested and diluted up to 5 times in working media to avoid the hook effect. HTRF assays were performed in white 96-well plate (CisBio Bioassays) with a total working volume of 20 μL. All HTRF reagents were purchased from CisBio Bioassays and reconstituted according to the supplier protocols. For each assay 16 μL of diluted supernatants samples were incubated with 4 μL mixed solution containing donor and acceptor antibodies. Antibodies for the detection of TNFα and IL6 were used.
(§4) After 2 hours incubation, HTRF signals were measured using SPARK® multimode microplate reader with an excitation filter at 320 nm and fluorescence wavelength measurement at 620 and 665 nm, an integration delay of 60 μs and an integration time of 400 μs. Results were analyzed with a two-wavelength signal ratio: [intensity (665 nm)/intensity (620 nm)]*104. Calculation and analysis of cytokines release was performed according to the supplier protocols and using the 4PL 1/Y2 formula in GraphPad Prism software.

[3] = test system: IL6 secretion from LPS-stimulated THP-1 cells; test: IL6 secretion from LPS-stimulated THP-1 cells (HTRF); format: cell-based, Human; details: alone
Experimental: as §1, §2, §3, §4

[4] = Viability of THP-1 cells, MTT assay; format: cell-based, Human; details: human, THP-1 cells (monocytes); for viability at 24 h: CBD and CBG alone, treatments reported with the IL6 data, read-out: viability levels
Experimental: (§5) Cell lines were cultured according to standard mammalian tissue culture protocols and sterile technique. Human monocytes THP-1 cells were cultured in RPMI medium 1640. HaCaT cells were cultured in DMEME medium. All media was supplemented with 10% fetal bovine serum, streptomycin ([…]), penicillin (100 U/ml) and Nystatin (12.5 U/ml). Cells were incubated in 5% CO2 at 37° C. All tissue culture cells were maintained in 75 cm^2 cell culture treated flask (Eppendorf) and all the media and supplements were obtained from Biological Industries. Treatment were performed by plating cells in a 96 micro well delta surface plates (Eppendorf) in a starting confluence of 1×10^4 cells/well.
(§6) The viability of the cells following treatment was determined using a commercially available MTT assay kit (Abcam, ab146345) and performed according to manufacturer's instructions. Briefly, cells were seeded in a 96-well plate at a density of 1×10^4 cells/well (n=4) in 100 μl cell specific media. After overnight incubation, cells were exposed to varying concentrations of isolated components (CBD, CBG and PSO, each alone) and combination samples as described in Example 1, in 100 μl of specific media, by adding a stock solution to the medium in amount that provides the indicated concentration (see, Tables 1, 2A and 2B). Then, plates were incubated in a humidified atmosphere containing 5% CO2 in air at 37° C. for 24 hours. According to the MTT standard protocol, after 24 hours treatment, the media was removed, and all cells were incubated with serum-free media containing 0.5 mg/ml MTT for 4 hours at the incubator. The MTT purple crystals formed by the viable cells were dissolved using isopropanol containing 0.04 mol/L HCl. The quantification was determined by measuring the optical density at 570 nm in a spectrophotometer reader (Spark, Tecan). Results are presented as proportional viability (%) by comparing between treated and untreated groups.
(§7) Cytotoxic potential of an extract was determined according to the following criteria:
(§8) Cytotoxic: Viability is reduced to less than 70% of vehicle control.
(§9) Non-cytotoxic: Viability is >70% of vehicle control

THP-1 cells = test: Viability of THP-1 cells, MTT assay; format: cell-based, Human; details: 24 hours
Experimental: as §5, §6, §7, §8, §9

HaCaT cells [5] = test: Viability of HaCaT cells, MTT assay; format: cell-based; details: alone, FIG. 8A
Experimental: as §5, §6, §7
Cytotoxic: Viability is reduced to less than 70% of vehicle control. […]

[6] = alone, reported with the TNFα data
[7] = each component alone, all tested concentrations, FIG. 1A-B

| Compound | ROS production from HaCaT cells, effect relative to the solvent (ethanol) (HaCaT cells [1]) | ratio of TNFα secretion to cells viability ([2]; 10 μM) | ratio of TNFα secretion to cells viability ([2]; 20 μM) | ratio of TNFα secretion to cells viability ([2]; lowest concentration, FIG. 2B) | TNFα secretion (percentage of the control) [2] | ratio of IL6 secretion to cells viability ([3]; lowest tested concentration of 10 μM) | viability at 24 h [4] [%] | viability at 24 h, 10 µM ([4]; alone, 10 μM, reported with the TNFα data) [%] | viability at 24 h, 20 µM [4, 6] [%] | THP-1 cells viability (THP-1 cells; 20 μM, FIG. 1A) | THP-1 cells viability (THP-1 cells; [7]) | toxicity to keratinocyte cells (HaCaT cells [5]; high concentration, e.g. 40 μM) | viability of HaCaT cells (toxicity) (HaCaT cells [5]; higher concentration) | ratio of TNFα secretion to cells viability ([2]; medium concentration, FIG. 2B) | ratio of IL6 secretion to cells viability ([3]; 40 μM) | ratio between IL-6 secretion and viability ([3]; highest concentration, FIG. 5B) | toxicity to keratinocyte cells (HaCaT cells [5]; only at a high concentration) |
| --- | --- | --- | --- | --- | --- | --- | --- | --- | --- | --- | --- | --- | --- | --- | --- | --- | --- |
| C=C(C)[C@@H]1CCC(C)=C[C@H]1c1c(O)cc(CCCCC)cc1O [CBD, cannabidiol] | very mild effect | about 0.6 | about 0.6 | lowest ratio | elevation of TNFα secretion | 0.23 | > 140 | 140 | 140 | most pronounced effect | enhanced viability | toxic | toxic | – | – | – | – |
| CCCCCc1cc(O)c(C/C=C(\C)CCC=C(C)C)c(O)c1 [CBG, cannabigerol] | very mild effect | – | about 0.6 | – | elevation of TNFα secretion | – | > 140 | – | 140 | – | enhanced viability | – | – | lowest ratio | 0.29 | high reduction of the ratio | mild toxicity |
